Measured values as given in patent publication US20250353891A1 (MEDIMMUNE LIMITED, priority 2022, published 2025).
Starred links: 1 amine or outer side, 2 acyl side, 3 side chain; linkers in the order of their positions; H or OH if unused. Non-standard residues stand in square brackets, D forms with d. Residues, ends and D or L forms follow the SMILES beside them. Groups on a side chain read outwards from the residue. *: point of attachment. C20 diacid = O=C(O)CCCCCCCCCCCCCCCCCCC(=O)*; C18 diacid = O=C(O)CCCCCCCCCCCCCCCCC(=O)*; γGlu = O=C(O)[C@H](CCC(=O)[*:2])N[*:1]; αMeF = C[C@](N)(Cc1ccccc1)C(=O)O; AEEA = NCCOCCOCC(=O)O; Aib = CC(C)(N)C(=O)O

What was measured:
[1] = target: human GLP-1 receptor (hGLP-1R) (Homo sapiens, UniProt P43220); test: cAMP production (HTRF) in CHO cells expressing hGLP-1R; format: cell-based; parameters: expressed in transfected cells; conditions: for EC50: Table 6, peptides modified at position 17, cAMP in CHO hGLP-1R cells, geometric mean, read-out: hGLP-1R EC50; for % Relative Potency Ratio: Table 6, % GLP-1R activity relative to GLP-1 / % GlucR activity relative to glucagon
human GLP-1 receptor (hGLP-1R), sequence (P43220 24-463): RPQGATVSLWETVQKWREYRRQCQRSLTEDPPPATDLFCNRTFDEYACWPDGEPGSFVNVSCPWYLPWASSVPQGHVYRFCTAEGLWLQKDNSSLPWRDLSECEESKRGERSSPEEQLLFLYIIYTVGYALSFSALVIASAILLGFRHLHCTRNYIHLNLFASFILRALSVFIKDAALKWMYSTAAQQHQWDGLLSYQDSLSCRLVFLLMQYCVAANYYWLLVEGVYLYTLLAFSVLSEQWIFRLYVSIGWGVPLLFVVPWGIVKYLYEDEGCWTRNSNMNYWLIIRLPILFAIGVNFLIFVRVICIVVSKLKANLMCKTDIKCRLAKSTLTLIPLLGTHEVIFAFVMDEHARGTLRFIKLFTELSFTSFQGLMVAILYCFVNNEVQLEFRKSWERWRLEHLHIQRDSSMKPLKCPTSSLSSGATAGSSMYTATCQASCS
Procedure, shortened: (§1)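 Read-out: HTRF cAMP (anti-cAMP cryptate donor, cAMP-d2 acceptor in conjugate/lysis buffer), converted to % Delta F and fitted by 4-parameter logistic for EC50. Cell densities were 1×10^5 cells/mL (hGLP-1R) or 2×10^5 cells/mL (hGCGR). Stimulation lasted 30 min at room temperature.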

[2] = target: human glucagon receptor (hGCGR) (Homo sapiens, UniProt P47871); test: cAMP production (HTRF) in CHO cells expressing hGCGR; format: cell-based; parameters: expressed in transfected cells; conditions: Table 6, peptides modified at position 17; cAMP in CHO hGCGR cells; geometric mean; read-out: hGluc-R EC50
human glucagon receptor (hGCGR), sequence (P47871 26-477): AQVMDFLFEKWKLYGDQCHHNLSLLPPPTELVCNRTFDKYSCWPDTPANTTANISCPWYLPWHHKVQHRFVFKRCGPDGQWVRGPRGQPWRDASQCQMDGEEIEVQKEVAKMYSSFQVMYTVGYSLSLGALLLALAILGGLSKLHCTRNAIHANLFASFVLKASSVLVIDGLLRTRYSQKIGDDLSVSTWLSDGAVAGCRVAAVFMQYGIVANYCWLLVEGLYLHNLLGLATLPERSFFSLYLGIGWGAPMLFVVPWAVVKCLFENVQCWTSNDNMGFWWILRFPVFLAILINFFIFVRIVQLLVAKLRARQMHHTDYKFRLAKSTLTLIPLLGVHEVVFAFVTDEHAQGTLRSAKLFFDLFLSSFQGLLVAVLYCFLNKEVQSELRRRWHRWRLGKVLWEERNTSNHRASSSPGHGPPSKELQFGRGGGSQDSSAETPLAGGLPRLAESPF
Procedure, shortened: as §1

EC50 [1] [nM]	% Relative Potency Ratio [1]	EC50 [2] [nM]	Compound
0.0679	81.6	2.8	CC(C)C[C@H](NC(=O)[C@H](Cc1c[nH]c2ccccc12)NC(=O)[C@H](CCCNC(=N)N)NC(=O)[C@@H](NC(=O)[C@H](Cc1ccccc1)NC(=O)[C@H](CC(=O)O)NC(=O)[C@H](CCC(N)=O)NC(=O)[C@H](C)NC(=O)[C@H](CCCNC(=N)N)NC(=O)[C@H](CCCCNC(=O)COCCOCCNC(=O)COCCOCCNC(=O)CC[C@H](NC(=O)CCCCCCCCCCCCCCCCCCC(=O)O)C(=O)O)NC(=O)[C@H](CO)NC(=O)[C@H](CCC(=O)O)NC(=O)[C@H](CC(C)C)NC(=O)[C@](C)(Cc1ccccc1)NC(=O)[C@H](CCCCN)NC(=O)[C@H](CO)NC(=O)[C@@H](NC(=O)[C@H](CC(=O)O)NC(=O)[C@H](CO)NC(=O)[C@@H](NC(=O)[C@H](Cc1ccccc1)NC(=O)[C@@H](NC(=O)CNC(=O)[C@H](CCC(N)=O)NC(=O)C(C)(C)NC(=O)[C@@H](N)Cc1c[nH]cn1)[C@@H](C)O)[C@@H](C)O)C(C)C)C(C)C)C(=O)N[C@H](C(=O)N[C@@H](CCC(=O)O)C(=O)NC(C)(C)C(=O)NCC(N)=O)C(C)C [Peptide 508] (H-H[Aib]QGTFTSDVSK[αMeF]LESK([AEEA-AEEA-γGlu-C20 diacid])RAQDFVRWLVE[Aib]G-NH2)
0.594	10.1	3.02	CC(C)C[C@H](NC(=O)[C@H](Cc1c[nH]c2ccccc12)NC(=O)[C@H](CCCNC(=N)N)NC(=O)[C@@H](NC(=O)[C@H](Cc1ccccc1)NC(=O)[C@H](CC(=O)O)NC(=O)[C@H](CCC(N)=O)NC(=O)[C@H](C)NC(=O)[C@H](CCCNC(=N)N)NC(=O)[C@H](CCCCNC(=O)COCCOCCNC(=O)COCCOCCNC(=O)CC[C@H](NC(=O)CCCCCCCCCCCCCCCCCCC(=O)O)C(=O)O)NC(=O)[C@H](CO)NC(=O)[C@H](CCC(=O)O)NC(=O)[C@H](CC(C)C)NC(=O)[C@](C)(Cc1ccccc1)NC(=O)[C@H](CCCCN)NC(=O)[C@H](CO)NC(=O)[C@@H](NC(=O)[C@H](CC(=O)O)NC(=O)[C@H](CO)NC(=O)[C@@H](NC(=O)[C@H](Cc1ccccc1)NC(=O)[C@@H](NC(=O)CNC(=O)[C@H](CCC(N)=O)NC(=O)C(C)(C)NC(=O)[C@@H](N)Cc1c[nH]cn1)[C@@H](C)O)[C@@H](C)O)C(C)C)C(C)C)C(=O)N[C@@H](CC(C)C)C(=O)NC(C)(C)C(=O)N[C@H](C(=O)N[C@@H](CCC(=O)O)C(=O)O)[C@@H](C)O [Peptide 509] (H-H[Aib]QGTFTSDVSK[αMeF]LESK([AEEA-AEEA-γGlu-C20 diacid])RAQDFVRWLL[Aib]TE-OH; N-terminus assumed)
0.176	1.3	0.118	CC(C)C[C@H](NC(=O)[C@H](Cc1c[nH]c2ccccc12)NC(=O)[C@H](CCCNC(=N)N)NC(=O)[C@@H](NC(=O)[C@H](Cc1ccccc1)NC(=O)[C@H](CC(=O)O)NC(=O)[C@H](CCCNC(=N)N)NC(=O)[C@H](C)NC(=O)[C@H](CCCNC(=N)N)NC(=O)[C@H](CCCCNC(=O)COCCOCCNC(=O)COCCOCCNC(=O)CC[C@H](NC(=O)CCCCCCCCCCCCCCCCCCC(=O)O)C(=O)O)NC(=O)[C@@H](NC(=O)[C@H](CC(=O)O)NC(=O)[C@H](CC(C)C)NC(=O)[C@](C)(Cc1ccccc1)NC(=O)[C@H](CCCCN)NC(=O)[C@H](CO)NC(=O)[C@@H](NC(=O)[C@H](CC(=O)O)NC(=O)[C@H](CO)NC(=O)[C@@H](NC(=O)[C@H](Cc1ccccc1)NC(=O)[C@@H](NC(=O)CNC(=O)[C@H](CCC(N)=O)NC(=O)C(C)(C)NC(=O)[C@@H](N)Cc1c[nH]cn1)[C@@H](C)O)[C@@H](C)O)C(C)C)[C@@H](C)O)C(C)C)C(=O)N[C@@H](CC(C)C)C(=O)NC(C)(C)C(=O)N[C@@H](CCC(=O)O)C(=O)O [Peptide 510] (H-H[Aib]QGTFTSDVSK[αMeF]LDTK([AEEA-AEEA-γGlu-C20 diacid])RARDFVRWLL[Aib]E-OH; N-terminus assumed)
0.118	2.4	0.14	CC(C)C[C@H](NC(=O)[C@H](Cc1c[nH]c2ccccc12)NC(=O)[C@H](CCCNC(=N)N)NC(=O)[C@@H](NC(=O)[C@H](Cc1ccccc1)NC(=O)[C@H](CC(=O)O)NC(=O)[C@H](CCCNC(=N)N)NC(=O)[C@H](C)NC(=O)[C@H](CCCNC(=N)N)NC(=O)[C@H](CCCCNC(=O)COCCOCCNC(=O)COCCOCCNC(=O)CC[C@H](NC(=O)CCCCCCCCCCCCCCCCCCC(=O)O)C(=O)O)NC(=O)[C@@H](NC(=O)[C@H](CC(=O)O)NC(=O)[C@H](CC(C)C)NC(=O)[C@](C)(Cc1ccccc1)NC(=O)[C@H](CCCCN)NC(=O)[C@H](CO)NC(=O)[C@@H](NC(=O)[C@H](CC(=O)O)NC(=O)[C@H](CO)NC(=O)[C@@H](NC(=O)[C@H](Cc1ccccc1)NC(=O)[C@@H](NC(=O)CNC(=O)[C@H](CCC(N)=O)NC(=O)C(C)(C)NC(=O)[C@@H](N)Cc1c[nH]cn1)[C@@H](C)O)[C@@H](C)O)C(C)C)[C@@H](C)O)C(C)C)C(=O)N[C@@H](CC(C)C)C(=O)NC(C)(C)C(=O)N[C@@H](CCC(=O)O)C(N)=O [Peptide 511] (H-H[Aib]QGTFTSDVSK[αMeF]LDTK([AEEA-AEEA-γGlu-C20 diacid])RARDFVRWLL[Aib]E-NH2; N-terminus assumed)
0.159	28.7	2.31	CC(C)C[C@H](NC(=O)[C@H](CC(C)C)NC(=O)[C@H](Cc1c[nH]c2ccccc12)NC(=O)[C@H](CCCNC(=N)N)NC(=O)[C@@H](NC(=O)[C@](C)(Cc1ccccc1)NC(=O)[C@H](CC(=O)O)NC(=O)[C@H](CCC(N)=O)NC(=O)[C@H](C)NC(=O)[C@H](CCCNC(=N)N)NC(=O)[C@H](CCCCNC(=O)COCCOCCNC(=O)COCCOCCNC(=O)CC[C@H](NC(=O)CCCCCCCCCCCCCCCCC(=O)O)C(=O)O)NC(=O)[C@@H](NC(=O)[C@H](CC(=O)O)NC(=O)[C@H](CC(C)C)NC(=O)[C@](C)(Cc1ccccc1)NC(=O)[C@H](CCCCN)NC(=O)[C@H](CO)NC(=O)[C@@H](NC(=O)[C@H](CC(=O)O)NC(=O)[C@H](CO)NC(=O)[C@@H](NC(=O)[C@](C)(Cc1ccccc1)NC(=O)[C@@H](NC(=O)CNC(=O)[C@H](CCC(N)=O)NC(=O)C(C)(C)NC(=O)[C@@H](N)Cc1c[nH]cn1)[C@@H](C)O)[C@@H](C)O)C(C)C)[C@@H](C)O)C(C)C)C(=O)N[C@@H](C)C(=O)NC(C)(C)C(=O)NCC(N)=O [Peptide 512] (H-H[Aib]QGT[αMeF]TSDVSK[αMeF]LDTK([AEEA-AEEA-γGlu-C18 diacid])RAQD[αMeF]VRWLLA[Aib]G-NH2; N-terminus assumed)
0.0938	28.3	1.34	CC(C)C[C@H](NC(=O)[C@H](CC(C)C)NC(=O)[C@H](Cc1c[nH]c2ccccc12)NC(=O)[C@H](CCC(N)=O)NC(=O)[C@@H](NC(=O)[C@](C)(Cc1ccccc1)NC(=O)[C@H](CC(=O)O)NC(=O)[C@H](CCCNC(=N)N)NC(=O)[C@H](C)NC(=O)[C@H](CCCNC(=N)N)NC(=O)[C@H](CCCCNC(=O)COCCOCCNC(=O)COCCOCCNC(=O)CC[C@H](NC(=O)CCCCCCCCCCCCCCCCC(=O)O)C(=O)O)NC(=O)[C@@H](NC(=O)[C@H](CC(=O)O)NC(=O)[C@H](CC(C)C)NC(=O)[C@](C)(Cc1ccccc1)NC(=O)[C@H](CCCCN)NC(=O)[C@H](CO)NC(=O)[C@@H](NC(=O)[C@H](CC(=O)O)NC(=O)[C@H](CO)NC(=O)[C@@H](NC(=O)[C@](C)(Cc1ccccc1)NC(=O)[C@@H](NC(=O)CNC(=O)[C@H](CCC(N)=O)NC(=O)C(C)(C)NC(=O)[C@@H](N)Cc1c[nH]cn1)[C@@H](C)O)[C@@H](C)O)C(C)C)[C@@H](C)O)C(C)C)C(=O)N[C@@H](C)C(=O)NC(C)(C)C(=O)NCC(N)=O [Peptide 513] (H-H[Aib]QGT[αMeF]TSDVSK[αMeF]LDTK([AEEA-AEEA-γGlu-C18 diacid])RARD[αMeF]VQWLLA[Aib]G-NH2)
0.0767	35.4	1.37	CC(C)C[C@H](NC(=O)[C@H](Cc1c[nH]c2ccccc12)NC(=O)[C@H](CCC(N)=O)NC(=O)[C@@H](NC(=O)[C@H](Cc1ccccc1)NC(=O)[C@H](CC(=O)O)NC(=O)[C@H](CCCNC(=N)N)NC(=O)[C@H](C)NC(=O)[C@H](C)NC(=O)[C@H](CCCCNC(=O)COCCOCCNC(=O)COCCOCCNC(=O)CC[C@H](NC(=O)CCCCCCCCCCCCCCCCC(=O)O)C(=O)O)NC(=O)[C@@H](NC(=O)[C@H](CC(=O)O)NC(=O)[C@H](CC(C)C)NC(=O)[C@](C)(Cc1ccccc1)NC(=O)[C@H](CCCCN)NC(=O)[C@H](CO)NC(=O)[C@@H](NC(=O)[C@H](CC(=O)O)NC(=O)[C@H](CO)NC(=O)[C@@H](NC(=O)[C@H](Cc1ccccc1)NC(=O)[C@@H](NC(=O)CNC(=O)[C@H](CCC(N)=O)NC(=O)C(C)(C)NC(=O)[C@@H](N)Cc1c[nH]cn1)[C@@H](C)O)[C@@H](C)O)C(C)C)[C@@H](C)O)C(C)C)C(=O)N[C@@H](CC(C)C)C(=O)N[C@@H](CCC(=O)O)C(=O)NC(C)(C)C(=O)NCC(N)=O [Peptide 514] (H-H[Aib]QGTFTSDVSK[αMeF]LDTK([AEEA-AEEA-γGlu-C18 diacid])AARDFVQWLLE[Aib]G-NH2; N-terminus assumed)
